# Laboratory results as given in patent publication US20260138083A1, “CARBON DIOXIDE CONCENTRATOR” (NIPPON KAYAKU KABUSHIKI KAISHA, priority 2023, published 2026).
# Test: Oxidation-reduction resistance evaluation (cyclic voltammetry)
# Format: physicochemical
# Conditions: 0.1 mol/L in 1.0 mol/L aqueous sodium hydrogen carbonate; glass-like carbon electrode, Ag/AgCl reference; sweep rate 100 mV/sec
# Protocol: The fluoflavine compound represented by the formula (1-2) was dissolved in an aqueous solution (1.0 mol/L) of sodium hydrogen carbonate (manufactured by Tosoh Corporation, an industrial product) so that the concentration was 0.1 mol/L to produce an electrolyte liquid 10. The electrolyte liquid 10 was added into a sample vial for voltammetry (manufactured by BAS Inc., No. 001056), and a Teflon™ cap for voltammetry (manufactured by BAS Inc., 012671) was attached. A Pt counter electrode (manufactured by BAS Inc., No. 002222), a GCE glass-like carbon electrode (manufactured by BAS Inc., 6.0×3.0 mm, No. 002012), and a saturated KCl/silver/silver chloride reference electrode (manufactured by BAS Inc., No. 013503) were fixed with the Teflon™ cap so as to be immersed in the electrolyte liquid 10, and measurement of cyclic voltammetry was performed with a multi-electrochemical measurement system (manufactured by Hokuto Denko Co., Ltd., HZ-Pro). The potential scanning range was set to −500 mV to 700 mV, and a sweep rate was set to 100 mV/see to perform the measurement.
# An electrolyte liquid 12 was prepared in the same manner except that the fluoflavine compound represented by the formula (1-2) in the oxidation-reduction resistance evaluation 1 was changed to the compound represented by the formula (1-17). […]
structure (smiles),measurement,value
O=S(=O)([O-])c1cc(O)c(O)c(S(=O)(=O)[O-])c1.[Na+].[Na+] [formula (1-17)],"oxidation-reduction resistance (cyclic voltammogram, first cycle)",oxidized and then decomposed
